Blank lines part the entries; values can stand above or below the compound they belong to.
Tests used:
[1] = target: T1, PKM2-C423/424A in HEK cells (Homo sapiens, UniProt P14618, C423A/C424A); test: Activity of Myc-PKM2-C423/424A after NO (DETA-NO) treatment in HEK cells; type: cell-based; conditions: 500 μM DETA-NO for 20 hr; FIG. 11b
T1 construct: host or cells: HEK cells (endogenous PKM2 depleted by siRNA against the 3' UTR)
Protocol: (§1) HEK cell transfection was described herein. siRNA-mediated protein depletion was used in HEK cells. Two custom PKM2 siRNAs that target the 3′ UTR of PKM2 were obtained from Dharmacon. siRNA oligonucleotides (60 pmol/10 cm plate) were transfected into HEK cells using Lipofectamine RNAiMAX (Invitrogen) according to the manufacturer's protocol. After 24 hours, 5 μg pCMV-control, pCMV-PKM2-WT or pCMV-PKM2-C423A/424A were co-transfected with siRNA oligonucleotides (60 pmol/10 cm plate) into HEK cells using Lipofectamine 2000. After 24 hrs, cells were treated with 500 μM DETA-NO for 20 hr. Cells were then collected for assay.
PKM activity was measured based on generation of pyruvate, which was oxidized by pyruvate oxidase to produce color (k=570 nm). To measure PKM2 activity in vitro, 250 ng recombinant PKM2-WT and PKM2-C423A/424A proteins were pre-incubated with substrate 2 μl fructose-1,6-bisphosphate (FBP)(250 μM) in 2 ml dialysis buffer [20 mM Tris-HCL (pH 7.9), 20% (v/v) glycerol, 0.1 M KCL, 0.2 mM EDTA], followed by dialysis to remove the free FBP in 2 L dialysis buffer. After 10 ng PKM2-FBP complex was treated with 200-300 μM SNO-CoA for 10 min at room temperature, the activity of PKM2 was measured. […] Extracts were clarified by centrifugation (20,000 g, 4° C., 20 min, ×2), and protein concentration was determined by bicinchoninic acid assay. […]

[2] = system: Myc-PKM2-WT and Myc-PKM2-C423/424A expressing HEK cells; test: PEP accumulation in PKM2-expressing HEK cells after NO treatment; type: cell-based; conditions: HEK cells with endogenous PKM2 knocked down; 500 μM DETANO; FIG. 3h
Protocol: as §1
(§2) The amount of pyruvate was measured using Pyruvate Assay Kit (Sigma). Kidneys harvested from SCoR^+/+, SCoR^−/−, PKM2^+/+ or PKM2^−/− mice (sham operation or AKI) were mechanically homogenized in Pyruvate Assay Buffer (1 mg/5 μl buffer). After extracts were clarified by centrifugation (20,000 g, 4° C., 20 min, ×2), supernatant was used for assay. GHB in the serum of SCoR^+/+ and SCoR^−/− mice was measured following the GHB enzymatic assay kit from BUHLMANN. […] The amount of PEP, 6PG, ATP, ADP and serine were respectively measured using PEP Colorimetric/Fluorometric Assay Kit (Sigma), 6 phosphogluconate Assay kit (abeam), ATP Colorimetric/Fluorometric Assay Kit (Sigma), ADP Colorimetric/Fluorometric Assay Kit (Sigma) and DL-Serine Assay kit (Fluorometric) (Biovision).

[3] = system: Myc-PKM2-WT and Myc-PKM2-C423/424A expressing HEK cells; test: 6-phosphogluconate accumulation in PKM2-expressing HEK cells after NO treatment; type: cell-based; conditions: DETANO 500 μM, FIG. 11d
Protocol: as §1, §2

[4] = system: Myc-PKM2-WT and Myc-PKM2-C423/424A HEK cells; test: ADP/ATP ratio in PKM2-expressing HEK cells under NO treatment; type: cell-based; conditions: HEK cells under NO treatment (DETANO 500 μM); FIG. 12
Protocol: as §1, §2

recombinant PKM2 = target: T2, recombinant PKM2 (Homo sapiens, UniProt P14618); test: PKM activity of recombinant PKM2 after SNO-CoA treatment; type: biochemical; conditions: PKM2-FBP complex, 200-300 μM SNO-CoA for 10 min at room temperature; FIG. 3d
T2 construct: 6xHis (C); made in house; host or cells: E. coli BL21-CodonPlus
Protocol: PKM activity was measured based on generation of pyruvate, which was oxidized by pyruvate oxidase to produce color (k=570 nm). To measure PKM2 activity in vitro, 250 ng recombinant PKM2-WT and PKM2-C423A/424A proteins were pre-incubated with substrate 2 μl fructose-1,6-bisphosphate (FBP)(250 μM) in 2 ml dialysis buffer [20 mM Tris-HCL (pH 7.9), 20% (v/v) glycerol, 0.1 M KCL, 0.2 mM EDTA], followed by dialysis to remove the free FBP in 2 L dialysis buffer. After 10 ng PKM2-FBP complex was treated with 200-300 μM SNO-CoA for 10 min at room temperature, the activity of PKM2 was measured. To measure PKM2 activity in kidney, kidneys were mechanically homogenized in lysis buffer [50 mM phosphate buffer, pH 7.0, 150 mM NaCl, 0.1 mM EDTA, 0.1 mM DTPA, 1 mM PMSF, and protease inhibitor mixture (Roche)]. Extracts were clarified by centrifugation (20,000 g, 4° C., 20 min, ×2), and protein concentration was determined by bicinchoninic acid assay. 10 μl (0.1 μg/μl) lysate was used to measure PKM2 activity. Assay of PKM2 activity was followed the protocol of Pyruvate Kinase Activity Colorimetric/Fluorometric Assay Kit from Biovison In.

recombinant PKM1 = recombinant PKM1 (Homo sapiens, UniProt P14618); test: Activity of recombinant PKM1 after SNO-CoA treatment; type: biochemical; conditions: FIG. 8
recombinant PKLR = recombinant PKLR (Homo sapiens, UniProt P30613); test: Activity of recombinant PKLR after SNO-CoA treatment; type: biochemical; conditions: FIG. 8
[5] = target: T3, recombinant PKM2-C423/424A (Homo sapiens, UniProt P14618, C423A/C424A); test: Activity of recombinant PKM2-C423/424A after SNO-CoA treatment; type: biochemical; conditions: in vitro, 200-300 μM SNO-CoA for 10 min; FIG. 3f
T3 construct: 6xHis (C); made in house; host or cells: E. coli BL21-CodonPlus
Text: The mammalian cell expression plasmid pCMV-PKM2 was obtained from Origene. Mammalian cell expression plasmid pcDNA-SCoR was constructed by PCR-cloning. pCMV-PKM2 cysteine mutants were generated by QuikChange II Site-Directed Mutagenesis Kit (Agilent). For purification of recombinant PKM2, cDNA encoding PKM2-WT or PKM2-C423A/424A were cloned into pET21b (Novagen) to introduce a C-terminal 6×His tag on the expressed protein. The recombinant PKM2 proteins were purified from BL21-CodonPlus Competent E. coli Cells (Agilent). Overnight E. coli cultures were sub-cultured into 1 L of LB medium at 5%. At OD600 of 0.5, cultures were induced with […] IPTG and grown for a further 4 hr at 28° C. Cultures were centrifuged at 4000 g for 10 min to harvest the cells. Cell pellets from 1 L cultures were lysed in 10 mL of 1×PBS buffer containing 1 mM PMSF and protease-inhibitor cocktail by sonication. After centrifugation at 14500 g for 20 min, the supernatant was collected. […]
PKM activity was measured based on generation of pyruvate, which was oxidized by pyruvate oxidase to produce color (k=570 nm). […] After 10 ng PKM2-FBP complex was treated with 200-300 μM SNO-CoA for 10 min at room temperature, the activity of PKM2 was measured. […] Extracts were clarified by centrifugation (20,000 g, 4° C., 20 min, ×2), and protein concentration was determined by bicinchoninic acid assay. […]

tetrameric PKM2-WT = target: T4, tetrameric PKM2-WT (Homo sapiens, UniProt P14618); test: PKM2 dimer and tetramer formation in vitro, PKM2-WT; type: biochemical; conditions: purified proteins, 200-300 μM SNO-CoA for 10 min; FIG. 3g
T4 construct: 6xHis (C); made in house; host or cells: E. coli BL21-CodonPlus
Protocol: Assay of PKM2 dimer and tetramer in vitro follows previous descriptions. In brief, after 40 ng PKM2-FBP complex was treated with 200-300 μM SNO-CoA for 10 min at room temperature, 5 μl fresh glutaraldehyde (50%) was added to a reaction mixture containing 100 mM HEPES (pH 7.5) for 5 min at 37° C. The cross-linking reaction was terminated by addition of 5 μl 1M Tris-HCL (PH 8.0). Assay of PKM2 dimer and tetramer in situ was carried out as described previously. DSS (disuccinimidyl suberate; Thermo Scientific) (final 500 μM) was added to cells for 30 min at room temperature to cross-link proteins. Cells were lysed in RIPA Buffer and protein concentration was determined by bicinchoninic acid assay. Equal amounts of protein were separated by 4-15% Criterion™ Precast Midi Protein Gel and monomer, dimer and tetramer forms of PKM2 were detected with PKM2 antibody.

SCoR−/− mice = test: Ascorbate-supplemented chow in SCoR−/− mice: ascorbate levels and I/R-induced AKI; type: in vivo; conditions: chow with 1% ascorbate for six weeks, FIGS. 7b-c
Protocol: AKI surgery was carried out as described herein. Mice of similar age (9-11 weeks) and body weight (male: 25-28 g; female: 22-25 g) were used for surgery. The mice were anesthetized with isoflurane (1-3%) in oxygen and then anesthesia was maintained with isoflurane (0.75-2.0%) and adjusted as needed. The fur in the surgical area was removed with clippers and the skin sterilized with 3 times alternating washes of betadine […] and alcohol. The mouse was placed on a thermostatic station during surgery. The skin and muscle were cut open along the back to expose both right and left kidneys. Gentle blunt dissection was performed through muscular layers to reveal the kidney and a Q-tip was used to mobilize and exteriorize the kidney. A 5-0 silk suture was used to clamp the pedicle to block the blood flow to the kidney to induce renal ischemia for 23 min in male mice or 50 min in female mice, then the sutures released to allow reperfusion. The identical steps were performed on the contra-lateral side. A silk suture was used to close the muscle layer of the incision followed by the closure of the skin wound with vicryl. […] Seram creatinine and BUN were determined after 24 hrs of reperfusion upon removal of the kidney (when larger volumes of blood can be collected). Seram creatinine and BUN were measured at University Hospital's Clinical Laboratories.

recombinant PKM1, sequence (P14618 1-531 isoform P14618-2, species assumed): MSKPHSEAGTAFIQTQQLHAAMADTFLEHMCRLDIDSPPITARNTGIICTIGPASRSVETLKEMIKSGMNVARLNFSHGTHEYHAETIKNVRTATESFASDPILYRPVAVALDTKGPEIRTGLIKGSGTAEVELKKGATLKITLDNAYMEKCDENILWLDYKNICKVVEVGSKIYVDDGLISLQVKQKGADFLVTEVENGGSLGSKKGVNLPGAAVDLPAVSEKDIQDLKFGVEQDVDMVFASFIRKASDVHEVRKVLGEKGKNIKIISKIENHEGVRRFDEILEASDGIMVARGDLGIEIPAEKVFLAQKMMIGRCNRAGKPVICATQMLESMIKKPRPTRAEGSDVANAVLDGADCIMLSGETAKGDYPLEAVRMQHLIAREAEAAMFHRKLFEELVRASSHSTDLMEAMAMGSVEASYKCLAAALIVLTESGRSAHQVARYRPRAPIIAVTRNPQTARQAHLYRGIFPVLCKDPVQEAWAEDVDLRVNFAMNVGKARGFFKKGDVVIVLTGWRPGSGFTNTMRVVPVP
T1 sequence (P14618 2-531 C423A/C424A): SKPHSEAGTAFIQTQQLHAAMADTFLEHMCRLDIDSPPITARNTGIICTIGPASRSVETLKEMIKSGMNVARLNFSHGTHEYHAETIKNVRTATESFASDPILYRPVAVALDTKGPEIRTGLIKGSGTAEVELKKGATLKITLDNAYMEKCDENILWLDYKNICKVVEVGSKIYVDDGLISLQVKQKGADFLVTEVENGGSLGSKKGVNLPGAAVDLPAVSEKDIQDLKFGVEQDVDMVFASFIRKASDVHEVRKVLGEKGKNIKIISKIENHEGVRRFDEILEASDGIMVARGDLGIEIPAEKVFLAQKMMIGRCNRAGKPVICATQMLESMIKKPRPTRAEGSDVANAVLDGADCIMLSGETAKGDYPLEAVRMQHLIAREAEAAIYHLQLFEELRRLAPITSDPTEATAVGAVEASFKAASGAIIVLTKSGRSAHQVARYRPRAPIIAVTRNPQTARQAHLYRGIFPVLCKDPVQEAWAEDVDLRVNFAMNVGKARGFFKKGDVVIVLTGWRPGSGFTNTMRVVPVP
T3 sequence (P14618 2-531 C423A/C424A): as above
T4 sequence (P14618 whole entry, species assumed): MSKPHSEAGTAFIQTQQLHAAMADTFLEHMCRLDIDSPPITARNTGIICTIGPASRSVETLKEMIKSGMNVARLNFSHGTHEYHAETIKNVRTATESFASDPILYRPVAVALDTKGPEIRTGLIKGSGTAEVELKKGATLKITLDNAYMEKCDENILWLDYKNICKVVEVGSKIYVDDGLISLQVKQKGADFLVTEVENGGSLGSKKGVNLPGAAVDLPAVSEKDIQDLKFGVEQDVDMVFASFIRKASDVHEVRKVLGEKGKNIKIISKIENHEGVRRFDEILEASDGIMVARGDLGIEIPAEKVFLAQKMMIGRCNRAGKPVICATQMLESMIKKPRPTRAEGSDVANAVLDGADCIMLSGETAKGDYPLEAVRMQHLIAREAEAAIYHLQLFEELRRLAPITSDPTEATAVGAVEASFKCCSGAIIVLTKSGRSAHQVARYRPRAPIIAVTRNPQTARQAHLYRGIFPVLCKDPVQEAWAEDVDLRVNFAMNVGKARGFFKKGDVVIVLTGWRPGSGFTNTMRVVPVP
T2 sequence (P14618 whole entry, species assumed): as above
recombinant PKLR, sequence (P30613 whole entry, species assumed): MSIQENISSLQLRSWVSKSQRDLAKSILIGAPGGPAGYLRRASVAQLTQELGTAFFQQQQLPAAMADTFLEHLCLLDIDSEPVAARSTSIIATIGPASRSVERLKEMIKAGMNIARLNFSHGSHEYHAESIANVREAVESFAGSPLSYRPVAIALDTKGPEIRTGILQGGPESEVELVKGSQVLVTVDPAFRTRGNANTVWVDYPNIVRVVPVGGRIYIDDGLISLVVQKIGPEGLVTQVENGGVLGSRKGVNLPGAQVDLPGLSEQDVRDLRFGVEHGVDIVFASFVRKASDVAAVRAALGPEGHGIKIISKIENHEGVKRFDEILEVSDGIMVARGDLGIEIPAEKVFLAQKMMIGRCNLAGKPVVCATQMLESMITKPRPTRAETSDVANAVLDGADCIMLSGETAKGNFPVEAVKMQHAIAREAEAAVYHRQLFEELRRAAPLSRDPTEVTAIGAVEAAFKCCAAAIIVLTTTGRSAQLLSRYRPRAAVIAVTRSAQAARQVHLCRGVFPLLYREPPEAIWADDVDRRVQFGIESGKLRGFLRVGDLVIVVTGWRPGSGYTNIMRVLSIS

- activity of PKM2-C423/424A in HEK cells [1]: cannot be inhibited
Structure (SMILES): NCCN(CCN)/[N+]([O-])=N/O [DETA-NO]
- accumulation of PEP in Myc-PKM2-C423/424A cells [2]: not Myc-PKM2-C423/424A cells
- accumulation of PEP in Myc-PKM2-WT cells [2]: promoted the accumulation of PEP
- accumulation of 6-phosphogluconate in Myc-PKM2-WT vs. Myc-PKM2-C423/424A cells [3]: promotes accumulation of 6-phosphogluconate
- ADP/ATP ratio between Myc-PKM2-WT and Myc-PKM2-C423/424A cells [4]: no different

- activity of recombinant PKM2 after SNO-CoA treatment (recombinant PKM2): directly inhibited
- activity of PKM2-C423/424A after SNO-CoA treatment [5]: cannot be inhibited
Structure (SMILES): CC(C)(COP(=O)(O)OP(=O)(O)OC[C@H]1O[C@@H](n2cnc3c(N)ncnc32)[C@H](O)[C@@H]1OP(=O)(O)O)[C@@H](O)C(=O)NCCC(=O)NCCSN=O [SNO-CoA, S-nitroso-CoA]
- activity of recombinant PKM1 after SNO-CoA treatment (recombinant PKM1): not other PK isoforms (PKM1 or PKLR), was directly inhibited
- activity of recombinant PKLR after SNO-CoA treatment (recombinant PKLR): not other PK isoforms (PKM1 or PKLR), was directly inhibited
- formation of tetrameric PKM2-WT (tetrameric PKM2-WT): inhibited formation of tetrameric PKM2-WT

Structure (SMILES): O=C1O[C@H]([C@@H](O)CO)C(O)=C1O [ascorbate, ascorbic acid]
- AKI phenotype (serum creatinine and BUN) (SCoR−/− mice): no effect on the AKI phenotype
